Test results taken from patent US20240200147A1, “Non-Small Cell Lung Cancer Diagnosis and Treatment” (West Virginia University Board of Governors on Behalf of …, priority 2022, published 2024).
Read-outs that look alike come from different tables or passages of the source. Non-standard residues stand in square brackets, D forms with d. Residues, ends and D or L forms follow the SMILES beside them.

Assays:
NSCLC cells [1] = details: cited from earlier work
CCLE NSCLC cell lines = assay: Average IC50 and EC50 of selected compounds in PRISM drug screening data; format: cell-based, human; details: for EC50 / IC50: PRISM dataset, NSCLC cell lines, outliers (drug concentration value > 10) removed
Description: The drug sensitivity data of human NSCLC cell lines were taken from multiple resources. The secondary PRISM repurposing dataset was obtained from the DepMap release 19Q4. […] A total of 64 NSCLC cell lines from GDSC1 and 58 NSCLC cell lines from GDSC2 were included in this study. Details of the categorization of drug sensitivity in each cell line were included in our previous publications.

[2] = test system: EGFR and HER2 transactivation; details: cited from earlier work
[3] = test system: human NSCLC A549 and NCI-H358 cells; details: cited from earlier work
NSCLC H460 cells = details: in-vitro and in-vivo; cited from earlier work
NSCLC cells [4] = details: cited from earlier work; remark: listed apart in the source
[5] = test system: oxidative phosphorylation; details: mitochondrial protonophore; cited from earlier work
trophoblast = details: fetal growth restriction; cited from earlier work
[6] = test system: phosphorylated extracellular signal-regulated kinase (pERK); details: patients with locally advanced/metastatic melanoma; clinically relevant doses; phase I; cited from earlier work
pERK = details: patients with solid tumors; phase I; cited from earlier work
refractory NSCLC = refractory NSCLC patients; open-label phase II; cited from earlier work
[7] = test system: endogenous promoters containing activator protein 1 (AP-1) response elements; details: genes lacking an AP-1 response element not affected; cited from earlier work
[8] = test system: human breast cancer MDA-MB-231 and HBC-4 cells; details: cited from earlier work
[9] = test system: Ki-ras-transformed rat fibroblasts; details: concurrent suppression of ERK and mTOR-p70(S6K) pathways; cited from earlier work
NSCLC = details: linsitinib added to erlotinib, compared with erlotinib alone; cited from earlier work
non-progressing NSCLC = details: maintenance therapy, linsitinib added to erlotinib; cited from earlier work
U2OS and 143B lines = details: cited from earlier work
U87MG glioma cells = details: cited from earlier work
glioma tumor = details: mouse xenograft model; cited from earlier work
[10] = test system: late-stage, metastatic, Kras-mutant NSCLC; details: compared with various combination therapies, chemo-, and immune therapy; cited from earlier work
[11] = induced by addition of ET-1 to NSCLC cells
[12] = BMS-754807 alone, A549 and NCI-H358

For `COc1cc2c(cc1OC)[C@@H]1C(=O)c3ccc4c(c3O[C@@H]1CO2)C=CC(C)(C)O4` [deguelin], the “antiapoptotic impact of morphine” value (NSCLC cells [1]) is listed as “reversed”.

For `Cc1nc(Nc2ncc(C(=O)Nc3c(C)cccc3Cl)s2)cc(N2CCN(CCO)CC2)n1` [dasatinib], the EC50 (CCLE NSCLC cell lines; Homo sapiens) was 504 nM and the IC50 (CCLE NSCLC cell lines; Homo sapiens) was 555 nM.

In the case of `CC(C)C[C@@H]1NC(=O)[C@@H](C(C)C)NC(=O)[C@@H]2CCCN2C(=O)[C@@H](CC(=O)O)NC(=O)[C@@H](Cc2c[nH]c3ccccc23)NC1=O` [BQ-123] (cyclo(L[dW][dD]P[dV])), the “increase in EGFR and HER2 transactivation” value (shortened to “increase”) [2, 11] is given as “inhibited”.

In the case of `N#CC(=C(N)Sc1ccc(N)cc1)c1ccccc1C(F)(F)F` [MEK1-2-inhibitor], the EC50 (CCLE NSCLC cell lines) is reported as 2200 nM and the IC50 (CCLE NSCLC cell lines) is reported as 4200 nM.

For `CS(=O)(=O)CCNCc1ccc(-c2ccc3ncnc(Nc4ccc(OCc5cccc(F)c5)c(Cl)c4)c3c2)o1` [Lapatinib], the “increase” value [2] is given as “inhibited”.

In the case of `C[C@@]1(C(=O)Nc2ccc(F)nc2)CCCN1c1nc(Nc2cc(C3CC3)n[nH]2)c2cccn2n1` [BMS-754807], the “effect on cisplatin and carboplatin” value ([3]; A549 cells) is listed as “enhanced”, the apoptosis [3, 12] is listed as “enhanced” and the “cell survival and wound closure” value [3, 12] is listed as “reduced”. For the same compound, the EC50 (CCLE NSCLC cell lines; Homo sapiens) was 1020 nM and the IC50 (CCLE NSCLC cell lines; Homo sapiens) was 1740 nM.

Work on `COc1cccc(-c2cc(=O)c3ccccc3o2)c1N` [PD-98059] yielded an EC50 (CCLE NSCLC cell lines) of 607 nM and an IC50 (CCLE NSCLC cell lines) of 4980 nM.

For `COc1nc(C)cnc1NS(=O)(=O)c1cccnc1-c1ccc(-c2nnco2)cc1` [ZD4054], the “increase” value [2, 11] is given as “inhibited”.

For `CN1CC[C@]23c4c5ccc(O)c4O[C@H]2[C@@H](O)C=C[C@H]3[C@H]1C5` [Morphine], the “growth of NSCLC H460 cells” value (NSCLC H460 cells) is listed as “promoted”.

For `O=C(NOCC1CC1)c1ccc(F)c(F)c1Nc1ccc(I)cc1Cl` [PD-184352], the EC50 (CCLE NSCLC cell lines) was 2190 nM and the IC50 (CCLE NSCLC cell lines) was 3990 nM.

For `Cc1ccc(-c2nn(C(C)(C)C)c3ncnc(N)c23)cc1` [PP-1], the “antiapoptotic impact of morphine” value (NSCLC cells [1]) is listed as “reversed”, the “phosphorylation induced by morphine” value (NSCLC cells [4]) is listed as “decreased” and the EC50 (CCLE NSCLC cell lines) is listed as 2080 nM. For the same compound, the IC50 (CCLE NSCLC cell lines) was 3410 nM.

For `Cc1cc(I)ccc1Nc1c(C(=O)NOCC2CC2)cc(F)c(F)c1F` [PD-198306], the oxidative phosphorylation [5] is given as “uncouples”, the EC50 (CCLE NSCLC cell lines; Homo sapiens) is given as 2030 nM and the IC50 (CCLE NSCLC cell lines; Homo sapiens) is given as 3160 nM.

For `COc1cc(Nc2c(C#N)cnc3cc(OCCCN4CCN(C)CC4)c(OC)cc23)c(Cl)cc1Cl` [bosutinib], the EC50 (CCLE NSCLC cell lines; Homo sapiens) was 1590 nM and the IC50 (CCLE NSCLC cell lines; Homo sapiens) was 3160 nM.

For `O=C1Nc2ccccc2/C1=C1/Nc2ccccc2C1=O` [indirubin], the EC50 (CCLE NSCLC cell lines; Homo sapiens) was 630 nM and the IC50 (CCLE NSCLC cell lines; Homo sapiens) was 3550 nM.

In the case of `COc1cc2ncnc(Nc3ccc(Cl)cc3F)c2cc1OC` [ZM-306416], the “trophoblast proliferation and migration” value (trophoblast) is listed as “impaired”, the EC50 (CCLE NSCLC cell lines; Homo sapiens) is listed as 1080 nM and the IC50 (CCLE NSCLC cell lines; Homo sapiens) is listed as 2630 nM.

For `O=C(NC[C@H](O)CO)c1ccncc1Nc1ccc(I)cc1F` [AS-703026, pimasertib], the “pERK in peripheral blood mononuclear cells” value [6] is given as “inhibition”, the pERK (pERK) is given as “inhibited” and the EC50 (CCLE NSCLC cell lines; Homo sapiens) is given as 940 nM. For the same compound, the IC50 (CCLE NSCLC cell lines; Homo sapiens) was 1510 nM.

In the case of `CC(C)(C)n1nc(-c2ccc(Cl)cc2)c2c(N)ncnc21` [PP-2], the “increase” value [2, 11] is given as “inhibited”, the EC50 (CCLE NSCLC cell lines) is given as 2480 nM and the IC50 (CCLE NSCLC cell lines) is given as 3190 nM.

For `CNC(=O)[C@H](Cc1c[nH]c2ccccc12)NC(=O)[C@@H](CC(=O)NO)CC(C)C` [GM6001], the “increase” value [2, 11] is listed as “inhibited”.

For `O=C(NOC[C@H](O)CO)c1ccc(F)c(F)c1Nc1ccc(I)cc1F` [PD-0325901], the EC50 (CCLE NSCLC cell lines) was 386 nM, the IC50 (CCLE NSCLC cell lines) was 748 nM and the “average IC50 and EC50 values (in words)” value (CCLE NSCLC cell lines; PRISM drug screening data) was “small”. For the same compound, the primary endpoint (refractory NSCLC) was “did not meet”.

For `C[N@+]1(CC2CC2)CC[C@]23c4c5ccc(O)c4O[C@H]2C(=O)CC[C@@]3(O)[C@H]1C5` [methylnaltrexone], the “antiapoptotic impact of morphine” value (NSCLC cells [1]) is given as “reversed” and the “phosphorylation induced by morphine” value (NSCLC cells [4]) is given as “decreased”.

For `N#CC(=C(/N)Sc1ccccc1N)/C(C#N)=C(\N)Sc1ccccc1N` [U-0126], the “endogenous promoters containing AP-1 response elements” value [7] is listed as “inhibits”, the sensitivity to anoikis [8] is listed as “sensitizes” and the EC50 (CCLE NSCLC cell lines; Homo sapiens) is listed as 1870 nM. For the same compound, the IC50 (CCLE NSCLC cell lines; Homo sapiens) was 4530 nM and the anchorage-independent growth [9] was “inhibits”.

In the case of `O=S(=O)(O)c1cc(O)c(O)c(S(=O)(=O)O)c1` [Tiron], the “increase” value [2, 11] is listed as “inhibited”.

In the case of `C[C@]1(O)C[C@@H](c2nc(-c3ccc4ccc(-c5ccccc5)nc4c3)c3c(N)nccn32)C1` [linsitinib], the patient outcomes (NSCLC) is given as “worse patient outcomes”, the “PFS or OS” value (non-progressing NSCLC) is given as “did not improve” and the EC50 (CCLE NSCLC cell lines; Homo sapiens) is given as 2090 nM. For the same compound, the IC50 (CCLE NSCLC cell lines; Homo sapiens) was 4250 nM.

For `COc1ccc(Cl)cc1NC(=O)Nc1cc(C)nc2ccccc12` [PQ-401], the “osteosarcoma cell proliferation, migration, and colony formation” value (U2OS and 143B lines) is listed as “inhibits”, the apoptosis (U87MG glioma cells) is listed as “induces” and the “in-vitro viability, proliferation, and mobility” value (U87MG glioma cells) is listed as “inhibits”. For the same compound, the “in-vivo glioma tumor growth” value (glioma tumor) was “inhibits”, the EC50 (CCLE NSCLC cell lines; Homo sapiens) was 2200 nM and the IC50 (CCLE NSCLC cell lines; Homo sapiens) was 5340 nM.

Work on `CN1CCN(CCOc2cc(OC3CCOCC3)c3c(Nc4c(Cl)ccc5c4OCO5)ncnc3c2)CC1` [saracatinib] yielded an EC50 (CCLE NSCLC cell lines; Homo sapiens) of 983 nM and an IC50 (CCLE NSCLC cell lines; Homo sapiens) of 1730 nM.

For `Cn1cnc2c(F)c(Nc3ccc(Br)cc3Cl)c(C(=O)NOCCO)cc21` [selumetinib], the “safety profile in treating NSCLC” value [10] is given as “better safety profile”, the EC50 (CCLE NSCLC cell lines; Homo sapiens) is given as 647 nM and the IC50 (CCLE NSCLC cell lines; Homo sapiens) is given as 2210 nM.
